According to US10526369B2, “Oxidative modification improves the drugability of cell penetrating peptides as drug carriers” (JOWIN BIOPHARMA, priority 2016, dated 2020):
Where a SMILES comes first, the peptide text is derived from it. Bridges are numbered along the chain shown (N, C = ends). Roman numbers before positions name the chains, in order. Where no end group is shown, it is not given here. The star is where a group is joined. FITC = O=C1OC2(c3ccc(O)cc3Oc3cc(O)ccc32)c2ccc(NC(=S)*)cc21; 5FAM = O=C1OC2(c3ccc(O)cc3Oc3cc(O)ccc32)c2ccc(C(=O)*)cc21

Experiments:
[1] = Stability of peptides in mice serum (HPLC of remaining peptide, t1/2 by CompuSyn); format: in vitro ADME; conditions: for Fold increase (of t1/2 compared with CPPecp): t1/2 of CPPecp set as one-fold; for half-life: mouse
Method: FIG. 1 illustrates the stability of CPPecp in mice serum. CPPecp was dissolved in 1× PBS (4 mg/ml) and incubated with equal volume of mice serum (final 50%) for different time points (0, 2, 5, 15, 30, 60 min, respectively). The reaction was terminated by the addition of an equal volume of TCA solution (final 50%) and denatured serum proteins were removed by centrifugation. The supernatant was then assayed by HPLC to quantify the remaining CPPecp. Zero time point was set as 100 percent of remaining CPPecp and relative amounts of CPPecp in each time point were calculated. Data represent the mean±SD (standard deviation) of three independent experiments. The t1/2 of CPPecp was calculated by CompuSyn.
FIG. 2 illustrates comparison of stabilities between CPPecp and N-terminal FITC-conjugated CPPecp in mice serum. Both were dissolved in dH2O (0.5 mg/ml) and incubated with equal volume of 20% mice serum (final 10%) for different time points (0, 2, 5, 15, 30, 60 min, respectively). The reactions were terminated by the addition of an equal volume of TCA solution (final 50%) and denatured serum proteins were removed by centrifugation. The supernatants were assayed by HPLC to quantify the remaining peptides. Zero time point was set as 100 percent of remaining peptides and relative amounts of peptides in each time point were calculated. The t1/2, of CPPecp and N-terminal FITC-CPPecp were calculated by CompuSyn.
FIG. 3 illustrates stabilities of N-terminal (5-FAM)-CPPecp-CPPecp (A) and N-terminal Ac-CPPecp (B) in mice serum. Both modified peptides were dissolved in dH2O (0.5 mg/ml) and incubated with equal volume of 20% mice serum (final 10%) for different time points (0-24 hours for (5-FAM)-CPPecp-CPPecp and 0-60 min for Ac-CPPecp, respectively). The reactions were terminated by the addition of an equal volume of TCA solution (final 50%) and denatured serum proteins were removed by centrifugation. The supernatants were assayed by HPLC to quantify the remaining peptides. Zero time point was set as 100 percent of remaining peptides and relative amounts of peptides in each time point were calculated. The t1/2 of N-terminal (5-FAM)-CPPecp-CPPecp and N-terminal Ac-CPPecp were calculated by CompuSyn.
FIG. 5 illustrates comparison of stabilities between CPPecp (A) and CPPecp-dimer (B) in mice serum. Both peptides were dissolved in 1× PBS (4 mg/ml) and incubated with equal volume of mice serum (final 50%) for different time points (0-60 min for CPPecp and 0-48 hours for CPPecp-dimer, respectively). The reactions were terminated by the addition of an equal volume of TCA solution (final 50%) and denatured serum proteins were removed by centrifugation. The supernatants were assayed by HPLC to quantify the remaining peptides. Zero time point was set as 100 percent of remaining peptides and relative amounts of peptides in each time point were calculated. Data represent the mean±SD (standard deviation) of three independent experiments. The t1/2, of CPPecp and CPPecp-dimer were calculated by CompuSyn.
The unmodified CPPecp (NH2-NYRWRCKNQN-COOH (SEQ. ID NO:2)) was synthesized by MISSION BIOTECH Inc. in TAIWAN. To determine the stability of unmodified CPPecp in mice serum, 100 μl of CPPecp (0.5 mg/ml or 4 mg/ml) was mixed with equal volume of whole mice serum (strain: CD-1 (ICR), final 50%) and incubated at room temperature for 0, 2, 5, 15, 30 and 60 min. The reaction was stopped by adding 200 μl of 100% TCA solution and vortexed for 5 seconds to precipitate serum proteins. Denatured serum proteins were removed by centrifugation at 18000 x g, 4° C. for 2 mins. The supernatants were analyzed by HPLC (column: Purospher® STAR RP-18e, eluent A: 0.1% TFA in dH2O, eluent B: 0.1% TFA in acetonitrile, flow rate: 1ml/min, gradient: 2-35% of eluent B in 15 min, UV wavelength: 280 nm). Zero-time point was set as one hundred percent of remaining CPPecp and relative amount of CPPecp in each time point were calculated. The t1/2 of CPPecp was calculated by CompuSyn (ver. 1.0). […]

[2] = system: lung cancer cell lines: A549, NCI-H460 and NCI-H441; assay: Toxicity in lung cancer cell lines (cell viability, MTS assay); format: cell-based; conditions: 0.3-30 μM, 72 hours
Method: FIG. 8 illustrates toxicities of CPPecp and CPPecp-dimer in different lung cancer cell lines. Cells were incubated with CPPecp and CPPecp-dimer in different concentrations (0, 0.3, 1, 3, 10 and 30 μM) at 37° C. for 72 hours. Cell viabilities were measured by MTS assay. The 0 μM of CPPecp (vehicle control) was set as 100 percent and the relative viabilities in each concentration were calculated.
In order to investigate the application potential of CPPecp-dimer as a drug carrier, the toxicity of CPPecp-dimer was tested and CPPecp monomer was compared in three lung cancer cell lines: A549, NCI-H460 and NCI-H441. Lung cancer cell lines were seeded in 96-well plates (2*10^3/well) and incubated overnight. After adhesion, cells were incubated with different concentrations of CPPecp and CPPecp dimer (0, 0.3, 1, 3, 10 and 30 μM) for 72 hours. Cell viabilities were determined by MST assay (Promega Corp.). The cells without treatment were set as control and 100 percent and the relative viabilities in each concentration were calculated.

[3] = system: NCI-H460 cells; assay: Heparan sulfate binding assay on cells (fluorescence spectrophotometer); format: cell-based; conditions: NCI-H460 cells pre-incubated with heparanase 5 U/ml, 37° C., 2 hours
Method: FIG. 7 illustrates binding specificity of CPPecp and CPPecp-dimer on NCI-H460 cells. Before treatment, each well (96-well plate) was blocked by 2% of BSA at 4° C. for 1 hour, and washed with PBS once. After blocking, NCI-H460 cells were incubated with 0.625, 1.25 and 2.5 μM of FITC-CPPecp and FITC-CPPecp dimer at 4° C. for 1 hour. After washing with PBS, the binding of FITC-CPPecp and FITC-CPPecp dimer were measured by fluorescence spectrophotometer (A). To test binding specificity, cells were incubated with heparanase (5 U/ml) at 37° C. for 2 hours before peptide incubation (B and C). Total peptide inputs (binding and washout) were set as 100 percent and the relative binding of FITC-CPPecp and FITC-CPPecp dimer were calculated. The data represented the means of triplicate incubations. […]
In order to certify if the specific binding affinity to heparan sulfate of disulfide linked CPPecp-dimer is still maintained as original CPPecp, the heparan sulfate binding affinity was investigated by FITC-conjugated CPPecp monomer and dimer, and measured by fluorescence spectrophotometer. […] After rinse, each well was refilled with 100 μl of 1× PBS and the fluorescence intensity was measured by fluorescence spectrophotometer (excitation: 485 nm; emission: 521 nm) as binding partition. Unbound and rinsed out peptides were obtained by adding up the fluorescence intensity of culture medium and buffer. […]

[4] = mice serum (CD-1 (ICR)), final 50%, room temperature
[5] = mice serum, final 10%, peptide 0.5 mg/ml in dH2O

| increase of the stability of CPPecp ([1]; mice serum, final 50%) | Fold increase (of t1/2 compared with CPPecp) ([1]; mice serum) | half-life [1, 4] [min] | half-life [1, 5] [min] | Compound | effect on cell viabilities [2] | stability compared with unmodified CPPecp (in words) ([1]; mice serum, final 10%) | binding percentage after heparanase treatment [3] |
| --- | --- | --- | --- | --- | --- | --- | --- |
| – | 0% | 2.34 | – | H-NYRWRCKNQN-OH [CPPecp, NH2-NYRWRCKNQN-COOH (SEQ. ID NO:2), reference compound] | no inhibitory effect | – | – |
| – | −24% | – | 1.79 | Ac-NYRWRCKNQN [Ac-CPPecp] | – | – | – |

Further lines, the compound ahead of its results:

| Compound | increase of the stability of CPPecp ([1]; mice serum, final 50%) | Fold increase (of t1/2 compared with CPPecp) ([1]; mice serum) | half-life [1, 4] [min] | half-life [1, 5] [min] | effect on cell viabilities [2] | stability compared with unmodified CPPecp (in words) ([1]; mice serum, final 10%) | binding percentage after heparanase treatment [3] |
| --- | --- | --- | --- | --- | --- | --- | --- |
| N=C(N)NCCC[C@H](NC(=O)[C@H](Cc1c[nH]c2ccccc12)NC(=O)[C@H](CCCNC(=N)N)NC(=O)[C@H](Cc1ccc(O)cc1)NC(=O)[C@@H](N)CC(N)=O)C(=O)N[C@@H](CSSC[C@H](NC(=O)[C@H](CCCNC(=N)N)NC(=O)[C@H](Cc1c[nH]c2ccccc12)NC(=O)[C@H](CCCNC(=N)N)NC(=O)[C@H](Cc1ccc(O)cc1)NC(=O)[C@@H](N)CC(N)=O)C(=O)N[C@@H](CCCCN)C(=O)N[C@@H](CC(N)=O)C(=O)N[C@@H](CCC(N)=O)C(=O)N[C@@H](CC(N)=O)C(=O)O)C(=O)N[C@@H](CCCCN)C(=O)N[C@@H](CC(N)=O)C(=O)N[C@@H](CCC(N)=O)C(=O)N[C@@H](CC(N)=O)C(=O)O [CPPecp-dimer] (I: H-NYRWRCKNQN-OH / II: H-NYRWRCKNQN-OH; disulfide I:6-II:6) | up to 180 fold | +17900% | 420 | – | no inhibitory effect | – | – |
| N=C(N)NCCC[C@H](NC(=O)[C@H](Cc1ccc(O)cc1)NC(=O)[C@H](CC(N)=O)NC(=O)c1ccc2c(c1)C(=O)OC21c2ccc(O)cc2Oc2cc(O)ccc21)C(=O)N[C@@H](Cc1c[nH]c2ccccc12)C(=O)N[C@@H](CCCNC(=N)N)C(=O)N[C@@H](CS)C(=O)N[C@@H](CCCCN)C(=O)N[C@@H](CC(N)=O)C(=O)N[C@@H](CCC(N)=O)C(=O)N[C@@H](CC(N)=O)C(=O)N[C@@H](CC(N)=O)C(=O)N[C@@H](Cc1ccc(O)cc1)C(=O)N[C@@H](CCCNC(=N)N)C(=O)N[C@@H](Cc1c[nH]c2ccccc12)C(=O)N[C@@H](CCCNC(=N)N)C(=O)N[C@@H](CS)C(=O)N[C@@H](CCCCN)C(=O)N[C@@H](CC(N)=O)C(=O)N[C@@H](CCC(N)=O)C(=O)N[C@@H](CC(N)=O)C(=O)O [(5-FAM)-CPPecp-CPPecp] (5FAM-NYRWRCKNQNNYRWRCKNQN-OH; N-terminus and C-terminus assumed) | – | +720% | – | 19.2 | – | prolonged its stability from 2 to 24 hours | – |
| N=C(N)NCCC[C@H](NC(=O)[C@H](Cc1c[nH]c2ccccc12)NC(=O)[C@H](CCCNC(=N)N)NC(=O)[C@H](Cc1ccc(O)cc1)NC(=O)[C@H](CC(N)=O)NC(=S)Nc1ccc2c(c1)C(=O)OC21c2ccc(O)cc2Oc2cc(O)ccc21)C(=O)N[C@@H](CS)C(=O)N[C@@H](CCCCN)C(=O)N[C@@H](CC(N)=O)C(=O)N[C@@H](CCC(N)=O)C(=O)N[C@@H](CC(N)=O)C(=O)O [FITC-CPPecp] ({FITC}-NYRWRCKNQN-OH; C-terminus assumed) | – | +40% | – | 3.28 | – | not improved | decreased binding percentage |
